This note sets out measurements from patent US20230097992A1, “BIVALENT EGF FUSION TOXINS” (The Regents of the University of Colorado, a body corporate, priority 2020, published 2023).

The subject of data set [1] is human EGFR-positive HNSCC cell line HN6. Briefly: CellTiter-Glo Luminescent Cell Viability Assay, HN6. It counts as cell-based. The note with it: HN-6, read-out: IC50 to HNSCC cell lines (Erlotinib). Here is the method:
(§1) FIG. 9 presents the data from in vitro efficacy analysis of the human EGF fusion toxins against human EGFR-positive HNSCC cell lines using CellTiter-Glo® Luminescent Cell Viability Assay (Promega) Y-axis: inhibition rate of the cell viability by determining the number of viable cells based on the quantification of the ATP present. X-axis: plated fusion toxin concentration. Cycloheximide (1.25 mg/mL) was used as a positive control. The negative control contained cells without fusion toxin. Data were from three individual experiments for each HNSCC cell line. Error bars indicate SD.
(§2) Y-axis: inhibition rate of the cell viability by determining the number of viable cells based on the quantification of the ATP present. […] Cycloheximide (1.25 mg/mL) was used as a positive control. […]
(§3) In vitro efficacy analysis of the human EGF fusion toxins (mEGF-IT and bEGF-IT) to the human HNSCC tumor cell lines was performed using CellTiter-Glo® Luminescent Cell Viability Assay (Promega Corporation, Madison, Wis.) as described previously (Zheng et al. (2017), Mol. Oncol. 11, 584-594, which is hereby incorporated by reference in its entirety). This cell viability assay measures the luminescence produced because of ATP production from metabolically active cells. […] The luminescence signals were recorded using BioTek Synergy LX Multi-Mode Reader.
(§4) IC50 was determined using nonlinear regression (curve fit) of Prism. […]

For data set [2], the system named is human EGFR-positive HNSCC cell line UMSCC22B. The data set is described as follows: CellTiter-Glo Luminescent Cell Viability Assay, UMSCC22B. To be noted: read-out: IC50 to HNSCC cell lines (Erlotinib). It counts as cell-based. Here is the method: as §1, §2, §3, §4
(In general: In ATP-based viability assays light output follows the ATP content of the culture.)

The subject of data set [3] is human EGFR-positive HNSCC cell line Vu1365. The data set is described as follows: CellTiter-Glo Luminescent Cell Viability Assay, Vu1365. It counts as cell-based. The note with it: read-out: IC50 to HNSCC cell lines (Erlotinib). The procedure: as §1, §2, §3, §4
The test system of data set [4] is human EGFR-positive HNSCC cell line UMSCC1. The data set is described as follows: CellTiter-Glo Luminescent Cell Viability Assay, UMSCC1. The note with it: UMSCC1, read-out: IC50 to HNSCC cell lines (Erlotinib). The format is cell-based. The procedure:
as §1, §2, §3, §4

Data set [5] relates to human EGFR-positive HNSCC cell line UMSCC47. Briefly: CellTiter-Glo Luminescent Cell Viability Assay, UMSCC47. The format is cell-based. To be noted: read-out: IC50 to HNSCC cell lines (Erlotinib). Here is the method:
as §1, §2, §3, §4

The subject of a further data set is NSG mice. The data set is described as follows: In vivo off-target toxicity in NSG mice. From the text:
FIGS. 12A-C presents representative images of necropsy results for NSG mice treated with mono-EGF-IT or bi-EGF-IT without tumor cell injection. Mice were euthanized on day 13 after the first injection of the fusion toxins. The images show representative gross changes observed in the ear (FIG. 12A), liver (FIG. 12C) and gastrointestinal tract of a representative NSG mouse treated with mono-EGF-IT compared to a representative NSG mouse treated with bi-EGF-IT.
Mono-EGF-IT (mEGF-IT), bEGF-IT, or DT390 was intraperitoneally injected (IP) starting at day 4 at 50 μg/kg, once daily for 10 consecutive days. […] The injected animals were observed daily for signs and symptoms of illness and scored at least twice weekly based on the parameters as previously reported (Peraino et al. (2013), J. Immunol. Methods 398-399, 33-43, which is hereby incorporated by reference in its entirety; Wang et al., 2015). The animals were humanely euthanized when the score exceeded the limit or the animal lost more than 15% of its pre-injection body weight. In addition, to assess whether the fusion toxins are toxic to the animals, NSG mice injected with the fusion toxins only were also included as control.
The main side effects of targeting EGFR are caused by off-target effects, because EGFR is expressed in many healthy tissues, include skin, liver, and gastrointestinal tract (Widakowich et al., (2007), Oncologist, 12, 1443-1455). […] To further assess these toxic effects, another in vivo toxicity study in non-tumor-bearing mice was performed. NSG mice were treated with mono-EGF-IT or bi-EGF-IT, without tumor cell injection.

Data set [6] concerns residual Cal27 tumor cells. The data set is described as follows: CellTiter-Glo Luminescent Cell Viability Assay, residual Cal27 tumor cells. It counts as cell-based, human. The note with it: residual Cal27 cells from flank xenografts at day 14 after bEGF-IT 50 μg/kg once daily for 10 days. From the text: FIGS. 13A-C present in vitro binding affinity and efficacy analysis of the bEGF-IT to the residual Cal27 tumor cells. FIG. 13A: Flow cytometry binding affinity analysis of the bEGF-IT to the residual Cal27 tumor cells. The data were representative of three individual experiments. FIG. 13B: KD determination of the bEGF-IT to the residual Cal27 tumor cells using flow cytometry and nonlinear least squares fit. FIG. 13C: In vitro efficacy analysis of the bEGF-IT to the residual Cal27 tumor cells using CellTiter-Glo® Luminescent Cell Viability Assay. bEGF-IT group (green line); Anti-murine PD-1 immunotoxin group as negative control (blue line). Data were from three individual experiments. Error bars indicate SD.
The tumor was removed from the sacrificed flank-xenograft solid tumor-bearing mice and washed with PBS twice in sterile manner. Then the tumor sample was cut into small pieces (approximately 1 mm^3) on the lid of a petri dish and washed with PBS. The tissue pellet was resuspended in DMEM tissue culture medium and cultured in the T25 flask. After several days of culture, the tissue residues were removed and the residual tumor cells were cultured as parent Cal27 tumor cell line.
It was hypothesized that the residual tumor cells were still sensitive to the human EGF fusion toxin treatment. […]

[7] abbreviates: non-tumor-bearing NSG mice, 13 days after the first injection.

By IC50 is commonly meant the concentration at which inhibition is half-maximal.

Consider `C#Cc1cccc(Nc2ncnc3cc(OCCOC)c(OCCOC)cc23)c1` [Erlotinib], for which the half-maximal inhibitory concentration (IC50) worked out at 940 nM in data set [1]; 1740 nM in data set [2]; 1540 nM in data set [3]; 2460 nM in data set [4]; 4120 nM in data set [5].
Take “Bi-EGF IT: DT390 joined by G4S to two human EGF domains linked by (G4S)3, C-terminal 6×His tag; SEQ ID NO: 10”: the “adverse effects observed in treated mice” value with NSG mice (mice of the efficacy studies) is given as “these adverse effects were not observed”. Besides, the “general condition and skin” value with NSG mice (non-tumor-bearing NSG mice) is “but not bi-EGF-IT, were again generally unhealthy and lethargic with skin rashes”. Also, in the data set on NSG mice (setting [7]), the “necropsy, gastrointestinal tract” value is “normal appearance of the gastrointestinal tract” and the “necropsy, liver” value is recorded as “no significant abnormal findings”. In data set [6], this molecule gave an IC50 of 0.0562 nM.
